Results from paper PMC12116762, “Topobexin targets the Topoisomerase II ATPase domain for beta isoform-selective inhibition and anthracycline cardioprotection” (Nature Communications, 2025).
pIC50: −log10 of the molar value. Values joined by “and” are separate entries in the source; they are usually repeats but may differ in a detail not shown here. Equal entries are not always repeated.

Columns and labels:
[1] = system: neonatal rat ventricular cardiomyocytes (NVCM); assay: Inherent toxicity (LDH release) in NVCM; format: cell-based; design: key to LDH release (inherent toxicity), mean of independent replicates: % of total LDH activity; conditions: for LDH release (inherent toxicity), mean of independent replicates: Suppl.Fig.6c
Method in brief: (§1)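 Primary neonatal Wistar rat cardiomyocytes in serum- and pyruvate-free DMEM/F12 were pretreated with compound 3 h, then co-incubated 3 h with DAU (1.2 µM), or without DAU for inherent toxicity, then given a 48 h drug-free follow-up. Medium LDH activity (NAD+ reduction at 340 nm) expressed as % of total LDH.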

[2] = system: neonatal rat ventricular cardiomyocytes (NVCM); assay: Protection against DAU-induced cytotoxicity (LDH release) in NVCM; format: cell-based; conditions: for LDH release: independent replicates
Method in brief: as §1

recombinant human TOP2B = target: T1, recombinant human TOP2B (Homo sapiens, UniProt Q02880); assay: DNA decatenation assay, recombinant TOP2B; format: biochemical
T1 construct: Using recombinant full-length human TOP2A and TOP2B enzymes; YFP (N, cleaved yes); made in house; host or cells: HEK293F
T1 sequence (Q02880 1-1621 isoform Q02880-2): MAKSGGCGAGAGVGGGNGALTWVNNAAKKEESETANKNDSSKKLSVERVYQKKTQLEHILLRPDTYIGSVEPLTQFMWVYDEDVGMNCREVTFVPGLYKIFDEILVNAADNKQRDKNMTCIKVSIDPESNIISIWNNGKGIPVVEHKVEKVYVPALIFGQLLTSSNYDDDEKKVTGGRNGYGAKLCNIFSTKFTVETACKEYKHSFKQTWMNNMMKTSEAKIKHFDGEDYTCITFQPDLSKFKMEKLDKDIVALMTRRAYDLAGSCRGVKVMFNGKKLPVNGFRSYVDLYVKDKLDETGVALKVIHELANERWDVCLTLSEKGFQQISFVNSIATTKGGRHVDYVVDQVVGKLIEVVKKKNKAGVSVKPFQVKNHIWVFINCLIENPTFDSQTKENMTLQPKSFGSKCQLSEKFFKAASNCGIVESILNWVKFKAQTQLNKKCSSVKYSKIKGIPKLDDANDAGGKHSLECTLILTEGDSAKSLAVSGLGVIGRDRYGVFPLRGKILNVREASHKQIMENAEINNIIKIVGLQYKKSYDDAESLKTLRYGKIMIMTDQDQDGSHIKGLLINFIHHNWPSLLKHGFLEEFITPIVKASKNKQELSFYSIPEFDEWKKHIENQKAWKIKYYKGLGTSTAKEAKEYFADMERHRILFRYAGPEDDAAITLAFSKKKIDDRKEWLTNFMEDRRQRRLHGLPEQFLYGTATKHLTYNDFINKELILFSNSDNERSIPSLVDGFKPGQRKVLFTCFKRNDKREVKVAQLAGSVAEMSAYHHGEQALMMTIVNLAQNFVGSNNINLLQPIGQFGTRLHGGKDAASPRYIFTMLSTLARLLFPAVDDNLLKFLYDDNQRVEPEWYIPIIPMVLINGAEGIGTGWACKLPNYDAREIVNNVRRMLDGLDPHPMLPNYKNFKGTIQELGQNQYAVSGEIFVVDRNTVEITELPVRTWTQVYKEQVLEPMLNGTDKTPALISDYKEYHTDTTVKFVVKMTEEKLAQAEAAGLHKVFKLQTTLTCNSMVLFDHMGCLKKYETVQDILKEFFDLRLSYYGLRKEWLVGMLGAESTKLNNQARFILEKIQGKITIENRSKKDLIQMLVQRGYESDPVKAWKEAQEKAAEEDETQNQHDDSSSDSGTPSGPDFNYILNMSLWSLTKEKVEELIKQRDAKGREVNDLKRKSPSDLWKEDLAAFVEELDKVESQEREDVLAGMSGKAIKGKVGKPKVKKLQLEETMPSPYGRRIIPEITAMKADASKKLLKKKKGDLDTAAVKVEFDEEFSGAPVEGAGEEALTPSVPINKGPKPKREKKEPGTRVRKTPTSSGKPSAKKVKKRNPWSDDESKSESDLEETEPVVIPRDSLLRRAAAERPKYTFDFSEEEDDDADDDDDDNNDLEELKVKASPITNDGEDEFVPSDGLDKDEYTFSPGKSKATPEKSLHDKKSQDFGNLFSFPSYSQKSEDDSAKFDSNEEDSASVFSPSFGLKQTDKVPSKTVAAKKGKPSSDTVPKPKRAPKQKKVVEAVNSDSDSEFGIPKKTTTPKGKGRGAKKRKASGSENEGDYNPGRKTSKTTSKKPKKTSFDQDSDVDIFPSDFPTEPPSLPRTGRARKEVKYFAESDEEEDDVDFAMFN
Description: The human topoisomerase II decatenation assay was performed to determine the inhibitory effects of BNS-22 and new compounds as previously described with minor modifications[14],[36]. The assay was performed using recombinant human TOP2A or TOP2B generated using the HEK293F YFP-tag expression system as previously described[18],[19],[36]. Briefly, plasmids encoding YFP-TOP2A or YFP-TOP2B were transfected into HEK293F cells (Catalog number 11625019, Thermofisher Scientific), and TOP2 proteins were isolated from cell lysates by anti-YFP nanobody affinity chromatography. After elution by TEV protease cleavage, TOP2 proteins were FPLC purified by sequential cation exchange and size exclusion chromatography. Plasmid encoding TOP2B C88Y was generated by round-the-horn PCR mutagenesis and the sequence was verified by full-plasmid sequencing. Purified TOP2 proteins were stored in a storage buffer containing 20 mM HEPES pH 7.5, 500 mM NaCl, 0.5 mM TCEP, 25% (v/v) glycerol at -80 °C. For decatenation assays, purified TOP2 proteins were incubated with 200 ng kDNA (Topogen) in a reaction buffer containing 50 mM Tris−HCl (pH 8), 100 mM NaCl, 10 mM MgCl2, 0.5 mM DTT, 2 mM ATP, 0.1 mM tris(2-carboxyethyl)phosphine (TCEP), 5% (v/v) glycerol, 70 μg/mL bovine serum albumin, and 1/10 volume of each compound diluted in 10% DMSO (final DMSO concentration 1%) for 40 min at 37 °C. The reaction was then stopped by the addition of gel loading buffer (0.5 volumes of 60% (w/v) glycerol, 60 mM EDTA, 20 mM Tris−HCl (pH 7.5), 0.5 mg/mL bromophenol blue) and the samples were placed on ice. Reaction products were resolved by agarose gel electrophoresis in TBE buffer containing GelRed stain (Biotium). Gels were visualized using an iBright CL1000 (Thermofisher Scientific). Band intensities were quantified using FIJI, and the signal of the treated samples was normalized to the value of the control (untreated sample; 100%) present on the same gel. The normalized signal of three independent measurements was then expressed as mean ± SD. Each presented data point was obtained from distinct sample. Normalized values were plotted as a function of inhibitor concentration to determine IC50 values by nonlinear regression with variable slope using Prism 9 (GraphPad).

In the case of CCCc1cc(=O)oc2c(C(=O)N3CCCc4ccccc43)c(OCCN3CCN(C)CC3)ccc12 [topobexin (9)], the “LTC = lowest toxic concentration” value ([1]; NVCM, compound alone, n=4) was greater than 100 µM, the “LDH release, mean” value ([1]; compound 100 µM alone) was 16.49 % of total LDH and the LDH release ([1]; compound 100 µM alone, independent replicates) was 16.0714 % of total LDH and 14.563 % of total LDH and 13.722 % of total LDH and 21.6038 % of total LDH. For the same molecule, the “LDH release (inherent toxicity), mean of independent replicates” value (shortened to “LDH release (inherent toxicity), mean”) ([1]; compound alone 0.01 µM, NVCM) was 15.0001, the “LDH release (inherent toxicity), mean” value ([1]; compound alone 0.1 µM, NVCM) was 13.7512 and the “LDH release (inherent toxicity), mean” value ([1]; compound alone 1 µM, NVCM) was 12.2924. For the same molecule, the “LDH release (inherent toxicity), mean” value ([1]; compound alone 10 µM, NVCM) was 14.4604, the “LDH release (inherent toxicity), mean” value ([1]; compound alone 30 µM, NVCM) was 15.0547 and the “LDH release (inherent toxicity), mean” value ([1]; compound alone 100 µM, NVCM) was 16.49. The “concentration providing significant cardioprotection” value ([2]; NVCM, DAU 1.2 µM) was no less than 1 µM, the minimal effective concentration ([2]; Rattus norvegicus, Cardiomyocyte, NVCM, protection against DAU 1.2 µM, n=4, read-out: LEC = lowest effective concentration) was 1 µM and the “LDH release, mean” value ([2]; compound 0.01 µM + DAU 1.2 µM) was 39.6717 % of total LDH. The “LDH release (protection against DAU), mean of independent replicates” value (from here on “LDH release (protection against DAU)”) ([2]; compound 0.01 µM + DAU 1.2 µM, NVCM, Suppl.Fig.6b) was 39.6717, the LDH release ([2]; compound 0.01 µM + DAU 1.2 µM) was 48.3922 % of total LDH and 39.9759 % of total LDH and 35.5793 % of total LDH and 34.7393 % of total LDH and the “LDH release, mean” value ([2]; compound 0.1 µM + DAU 1.2 µM) was 37.5382 % of total LDH. For the same molecule, the “LDH release (protection against DAU)” value ([2]; compound 0.1 µM + DAU 1.2 µM, NVCM, Suppl.Fig.6b) was 37.5382, the “LDH release (protection against DAU)” value ([2]; compound 0.1 µM + DAU 1.2 µM, NVCM, Suppl.Fig.8a) was 42.825 and the LDH release ([2]; compound 0.1 µM + DAU 1.2 µM) was 40.1489 % of total LDH and 41.381 % of total LDH and 32.4516 % of total LDH and 36.1711 % of total LDH. The “LDH release, mean” value ([2]; compound 1 µM + DAU 1.2 µM) was 29.7613 % of total LDH, the “LDH release (protection against DAU)” value ([2]; compound 1 µM + DAU 1.2 µM, NVCM, Suppl.Fig.6b) was 29.7613 and the “LDH release (protection against DAU)” value ([2]; compound 1 µM + DAU 1.2 µM, NVCM, Suppl.Fig.8a) was 37.7816. For the same molecule, the LDH release ([2]; compound 1 µM + DAU 1.2 µM) was 32.8929 % of total LDH and 30.456 % of total LDH and 27.486 % of total LDH and 28.2102 % of total LDH, the “LDH release, mean” value ([2]; compound 10 µM + DAU 1.2 µM) was 24.2662 % of total LDH and the “LDH release (protection against DAU)” value ([2]; compound 10 µM + DAU 1.2 µM, NVCM, Suppl.Fig.6b) was 24.2662. For the same molecule, the “LDH release (protection against DAU)” value ([2]; compound 10 µM + DAU 1.2 µM, NVCM, Suppl.Fig.8a) was 30.0056, the LDH release ([2]; compound 10 µM + DAU 1.2 µM) was 28.5774 % of total LDH and 24.8184 % of total LDH and 21.0698 % of total LDH and 22.5992 % of total LDH and the “LDH release, mean” value ([2]; compound 30 µM + DAU 1.2 µM) was 25.2224 % of total LDH. The “LDH release (protection against DAU)” value ([2]; compound 30 µM + DAU 1.2 µM, NVCM, Suppl.Fig.6b) was 25.2224, the LDH release ([2]; compound 30 µM + DAU 1.2 µM) was 28.8537 % of total LDH and 23.9613 % of total LDH and 20.3957 % of total LDH and 27.679 % of total LDH and the “LDH release, mean” value ([2]; compound 100 µM + DAU 1.2 µM) was 26.7487 % of total LDH. For the same molecule, the “LDH release (protection against DAU)” value ([2]; compound 100 µM + DAU 1.2 µM, NVCM, Suppl.Fig.6b) was 26.7487, the “LDH release (protection against DAU)” value ([2]; compound 100 µM + DAU 1.2 µM, NVCM, Suppl.Fig.8a) was 32.5863 and the LDH release ([2]; compound 100 µM + DAU 1.2 µM) was 31.0584 % of total LDH and 27.7033 % of total LDH and 21.5053 % of total LDH and 26.728 % of total LDH. The “lowest concentration with statistically significant cytoprotective effects” value ([2]; side-by-side comparison with dexrazoxane (Supp Fig 8a)) was 0.1 µM, the remaining activity at 0.039 µM (recombinant human TOP2B; 0.039 μM, independent replicates, read-out: Normalized % TOP2B activity, decatenation) was 92.3% and the remaining activity at 0.313 µM (recombinant human TOP2B; 0.313 μM, independent replicates, read-out: Normalized % TOP2B activity, decatenation) was 29.3%. For the same molecule, the remaining activity at 0.625 µM (recombinant human TOP2B; 0.625 μM, independent replicates, read-out: Normalized % TOP2B activity, decatenation) was 15.5%, the remaining activity at 1.25 µM (recombinant human TOP2B; 1.250 μM, independent replicates, read-out: Normalized % TOP2B activity, decatenation) was 10.9% and the remaining activity at 2.5 µM (recombinant human TOP2B; 2.500 μM, independent replicates, read-out: Normalized % TOP2B activity, decatenation) was 11.1%. For the same molecule, the remaining activity at 5 µM (recombinant human TOP2B; 5.000 μM, independent replicates, read-out: Normalized % TOP2B activity, decatenation) was 9.87%, the remaining activity at 20 µM (recombinant human TOP2B; 20.000 μM, independent replicates, read-out: Normalized % TOP2B activity, decatenation) was 5.03% and the “SRbeta (SRTOP2B), decatenation activity” value (recombinant human TOP2B; TOP2A IC50 divided by TOP2B IC50) was 25. For the same molecule, the pIC50 (recombinant human TOP2B; enzyme expressed in HEK293F, n=3) was 6.72.
